Results published in patent US20060166360A1, “Compositions, solutions, and methods used for transplantation” (The General Hospital Corporation, priority 2002, published 2006).
Entries after “also recorded” stand apart in the source; their conditions may differ.

Key:
[1] = tested on: HSP72 and HO-1; test: Western blot of HSP72 and HO-1 in hepatocytes, CD4+ and CD8+ T cells of donor fatty liver; type: in vivo, rat; conditions: at time of harvesting; GdCl3 20 mg/kg i.v. 48 and 24 hours before harvesting
Procedure: (§1) Donor animals were divided into three groups; heat shock preconditioning (HPc) group, sham HPc (Sham) group, and gadolinium chloride (GdCl3) group. In the HPc group, rats were anesthetized and placed in a waterproof bag that was then immersed in a 43° C. water bath to elevate the core body temperature (measured via a rectal digital thermometer) to 42-42.5° C. Animals were maintained at that temperature for 10 min and then removed from the warm bath. Animals then received 10 ml/kg intraperitoneal saline injection and were allowed to recover with free access to food and water. Animals in the Sham and GdCl3 groups underwent the same procedures except that they were immersed in a 37° C. bath (sham HPc). In the GdCl3 group, Kupffer cell deactivation was achieved by two 20 mg/kg GdCl3 (Sigma, St. Louis, Mo.) intravenous injection 48 and 24 hours before donor liver harvesting. In the Sham and HPc groups, sterile nonpyrogenic saline was used as instead of GdCl3 solution. Donor livers were harvested 24 hours after HPc or sham HPc. In some experiments, rats were pretreated with 5 mg/kg i.m. Cyclosporine A (CyA; Sigma) 6 hours before donor liver harvesting.
Donor rats were sacrificed up to 240 hours after HPc. […] Protein signals were visualized by chemiluminescence (Pierce, Rockford, Ill.) and recorded on a GS282 Scanner (BioRad, Hercules, Calif.).

[2] = tested on: liver I/R injury in steatotic liver transplantation; test: Serum ALT after fatty liver transplantation; type: in vivo, rat; conditions: donor GdCl3 pretreatment
Procedure: as §1
Isogenic orthotopic liver transplantation was performed as described by Kamada and Calne (Kamada et al., Transplantation 28:47-50, 1979). Donor livers were harvested 3, 6, 24, 48, or 72 hours after HPc. Briefly, the bile duct was cannulated with a short intraluminal polyethylene stent. […] The infrahepatic and suprahepatic vena cava, including part of the diaphragm, were transected. […] For survival studies, the animals were returned to standard housing facilities and monitored for up to one week. […]
(§2) To assess liver injury, alanine aminotransferase (ALT) was measured in serum samples using a commercially available kit (Sigma). TNF-α, IL-10, IL-4, IL-12, and IFN-γ levels in serum and cell culture supernatant were determined by Enzyme-linked immunosorbent assay (ELISA). […]

[3] = tested on: transplanted fatty livers; test: Histology of transplanted fatty livers; type: in vivo, rat; conditions: 3 hours after transplantation, compared to Sham group livers
Procedure: as §1, with “In some experiments, rats were pretreated with 5 mg/kg i.m. Cyclosporine A (CyA; Sigma) 6 hours before donor liver harvesting.” left out
(§3) Isogenic orthotopic liver transplantation was performed as described by Kamada and Calne (Kamada et al., Transplantation 28:47-50, 1979). […] For survival studies, the animals were returned to standard housing facilities and monitored for up to one week. […]

[4] = tested on: IL-12p70, TNF-α and IL-10; test: Serum cytokine levels (ELISA) after fatty liver transplantation; type: in vivo, rat; conditions: donor GdCl3 pretreatment
Procedure: as §1, with “In the Sham and HPc groups, sterile nonpyrogenic saline was used as instead of GdCl3 solution. Donor livers were harvested 24 hours after HPc or sham HPc. In some experiments, rats were pretreated with 5 mg/kg i.m. Cyclosporine A (CyA; Sigma) 6 hours before donor liver harvesting.” left out
as §3, §2

[5] = tested on: intrahepatic neutrophil accumulation; test: Myeloperoxidase content of liver tissue (neutrophil accumulation) after transplantation; type: in vivo, rat
Procedure: Donor animals were divided into three groups; heat shock preconditioning (HPc) group, sham HPc (Sham) group, and gadolinium chloride (GdCl3) group. In the HPc group, rats were anesthetized and placed in a waterproof bag that was then immersed in a 43° C. water bath to elevate the core body temperature (measured via a rectal digital thermometer) to 42-42.5° C. Animals were maintained at that temperature for 10 min and then removed from the warm bath. Animals then received 10 ml/kg intraperitoneal saline injection and were allowed to recover with free access to food and water. Animals in the Sham and GdCl3 groups underwent the same procedures except that they were immersed in a 37° C. bath (sham HPc). […]
as §3
The presence of myeloperoxidase (MPO), enzyme specific for neutrophil (and some macrophages), was used as an index of intrahepatic neutrophil accumulation. […] The change in absorbance was measured by spectrophotometry at 450 nm. One unit of MPO activity was defined as the quantity of enzyme degrading 1 μM peroxide per minute at 25° C. per gram of tissue.

[6] = tested on: recipient rats; test: Survival of recipient rats after fatty liver transplantation; type: in vivo, rat; conditions: up to 1 week after transplantation, vs Sham group
Procedure: as §1, with “In some experiments, rats were pretreated with 5 mg/kg i.m. Cyclosporine A (CyA; Sigma) 6 hours before donor liver harvesting.” left out
as §3

[7] = tested on: liver CD4+ and CD8+ T cells; test: Flow cytometry of liver T cells after transplantation; type: in vivo, rat; conditions: for CD3+CD4+ relative number of T cells in the liver / CD3+CD8+ relative number of T cells in the liver: mean ± SD
Procedure: as §1
Three hours or 24 hours after liver transplantation, transplanted liver were perfused with sterile PBS through the portal vein to wash out all remaining peripheral blood and then meshed with stainless steel mesh. After the coarse pieces were removed by centrifugation at 50 g for 1 min, the cell suspensions were again centrifuged, resuspended in 8 mL of 45% Percoll (Sigma), and layered on 5 mL of 67.5% Percoll. The gradients were centrifuged at 600 g at 20° C. for 20 min. Lymphocytes at the interface were harvested and washed twice with PBS. CD4^+ or CD8^+ T cells were purified by Rat T cell CD4 or CD8 column kit (R&D systems, Minneapolis, […].) from the harvested liver lymphocytes. The purity of sorted cells was more than 95%.
For 3-color analysis, liver lymphocytes were incubated with saturating amounts of phycoerythrin-conjugated anti-rat CD3α mAb (Pharmingen, San Diego, Calif.) and fluorescein isothiocyanate-conjugated anti-rat CD4 mAb (Pharmingen) for 30 min. Cells were analyzed with a FACSCalibur flow cytometer (Becton Dickinson, San Jose, Calif.). We carefully gated cells by forward and side light scattering for the liver lymphocytes. The data were analyzed using CyQuest software (Becton Dickinson).

[8] = tested on: IFN-γ mRNA; test: RT-PCR of IFN-γ mRNA in purified liver T cells after transplantation; type: in vivo, rat; conditions: 24 hours after transplantation; donor GdCl3 pretreatment
Procedure: as §1
Three hours or 24 hours after liver transplantation, transplanted liver were perfused with sterile PBS through the portal vein to wash out all remaining peripheral blood and then meshed with stainless steel mesh. […]

[9] = tested on: liver CD4+ T cells; test: IFN-γ production by liver CD4+ T cells on anti-CD3 mAb-coated plates (ELISA); type: cell-based, rat; conditions: 24 hours after transplantation; donor GdCl3 pretreatment
Procedure: as §1
Liver lymphocytes were obtained by the same method previously described. […] IFN-γ and IL-4 levels in the culture supernatants were determined by ELISA.

[10] = tested on: steatotic hepatocytes; test: Defatting of steatotic cultured hepatocytes with defatting media; type: cell-based, rat; conditions: for effect on the defatting process (fat reduction): agent added in high insulin containing media; for effect on the defatting process (lipid removal): agent added in low insulin-containing medium
Procedure: It has previously been shown that collagen-sandwiched adult rat hepatocytes which are seeded and maintained in standard hepatocyte culture medium and then exposed to either rat or human plasma become severely steatotic within 24 hours with a concomitant reduction in liver-specific functions (Matthew et al., Biotechnol. Bioeng. 51: 100-111, 1995; Stefanovich et al., J. Surg. Res. 66: 57-63, 1996).
In the next set of experiments, we induced steatosis in hepatocytes by exposing them to high insulin levels followed by plasma for 2 days, and attempted to defat them using the following conditions: plasma supplemented with amino acids and low insulin levels; culture medium containing high insulin ([…]); culture medium containing low insulin (50 μU/mL) levels. We then measured the fraction of remaining triglycerides after 1 and 2 days of treatment. […] The triglyceride removal kinetic data in Table 2 was used to calculate a defatting rate for each defatting condition. For this purpose, the fraction of initial triglyceride remaining was plotted as a function of time on a semi-log plot, which yielded linear curves (not shown). The slopes of these lines, which correspond to the first order rate of decay or triglyceride clearance from the cells during defatting, are shown in Table 2 for each defatting condition tested. From these values, we can predict the fraction of intracellular lipid remaining after any treatment time using the simple equation: Triglyceride Fraction Remaining=100e^−[RateConstant][TreatmentTime] (equation 1)

Row | Compound | HSP72 and HO-1 expression in hepatocytes, CD4+ and CD8+ T cells [1] | serum ALT levels ([2]; 3 hours after transplantation, 12 hours cold preservation) | liver injury ([2]; 24 hours after transplantation) | protection against I/R injury by phase ([2]; acute (3 hours) and subacute (24 hours) phase) | hemorrhagic injury (histology) [3] | serum IL-12, TNF-α and IL-10 levels ([4]; 3 hours after transplantation) | serum TNF-α levels ([4]; 24 hours after transplantation) | MPO levels of liver tissue ([5]; 3 hours after transplantation) | MPO levels of liver tissue / neutrophil accumulation ([5]; 24 hours after transplantation) | recipient survival rate [6] | CD3+CD4+ relative number of T cells in the liver ([7]; 3 hr after transplantation) | CD3+CD8+ relative number of T cells in the liver ([7]; 3 hr after transplantation) | CD3+CD4+ relative number of T cells in the liver ([7]; 24 hr after transplantation) | CD3+CD8+ relative number of T cells in the liver ([7]; 24 hr after transplantation) | numbers of CD3+ CD8+ cells in the liver between groups ([7]; any stage following transplantation) | expression level of IFN-γ mRNA in isolated CD3+ CD4+ cells [8] | expression level of IFN-γ mRNA in isolated CD3+ CD8+ cells [8] | IFN-γ production by liver CD4+ T cells [9] | effect on the defatting process (fat reduction) [10] | effect on the defatting process (lipid removal) [10]
1 | [Cl][Gd]([Cl])[Cl] [GdCl3, gadolinium chloride] | neither HSP72 nor HO-1 was detected | significantly lower than that of Sham group | did not suppress liver injury | only protected I/R injury in the acute phase | reduced hemorrhagic injury | moderated the initial increase in IL-12, TNF-α, and IL-10 significantly; also recorded: suppressed; also recorded: prevented the serum release of IL-12, TNF-α, and IL-10 | not significantly different from that of liver controls | almost similar with no significant difference | no difference between the Sham group and the GdCl3-treated group; also recorded: did not suppress liver injury or neutrophil accumulation | no significant difference; also recorded: did not improve the recipient survival rate | 8.4 ± 2.7 ×10^5 | 4.2 ± 1.2 ×10^5 | 7.2 ± 2.2 ×10^5 | 5.6 ± 2.3 ×10^5 | no difference | much higher than that from HPc group | remained low in all three groups | did not suppress activation of or IFN-γ production |  | 
2 | hepatocyte growth factor |  |  |  |  |  |  |  |  |  |  |  |  |  |  |  |  |  |  | Some fat-reducing effects were seen | did not further enhance lipid removal
3 | leptin |  |  |  |  |  |  |  |  |  |  |  |  |  |  |  |  |  |  | Some fat-reducing effects were seen | did not further enhance lipid removal
